These results are taken from patent US8969395B2, “Triterpenoid derivatives useful as antiproliferative agents” (Universidade de Coimbra, priority 2009, dated 2015).

Holding throughout (format): cell-based
Assay [1] concerns PC-3 (human prostate adenocarcinoma). Description: Cytotoxic activity, PC-3. The settings on record: mean ±SD. On the procedure:
(§1) Compounds presented in Table 6 were also tested in the following cell lines: PC-3 (human prostate adenocarcinoma), LNCaP (human prostate adenocarcinoma), LAPC4 (human prostate adenocarcinoma) and HT-29 (human colon adenocarcinoma).

The subject of assay [2] is LNCaP (human prostate adenocarcinoma). The assay can be described thus: Cytotoxic activity, LNCaP. The settings on record: mean ±SD. On the procedure: as §1
The subject of assay [3] is HeLa (human cervical adenocarcinoma). Description: Cytotoxic activity, MTT assay, HeLa. The settings on record: 72 h, mean ±SD.
In assay [4] the test system is LAPC4 (human prostate adenocarcinoma). The assay can be described thus: Cytotoxic activity, LAPC4. The settings on record: mean ±SD. On the procedure:
as §1

In the case of `C=C(C)[C@@H]1CC[C@]2(C(=O)n3ccnc3)CC[C@]3(C)[C@H](CC[C@@H]4[C@@]5(C)CCC(=O)C(C)(C)[C@@H]5CC[C@]43C)[C@@H]12` [Compound 44, 28-(1H-imidazol-1-yl)-lup-20(29)-en-3,28-dione], the IC50 was 6.9 ± 1.1 µM in assay [1], 13.7 ± 0.5 µM in assay [2], 2 ± 0.3 µM in assay [3] and 17.2 ± 2.3 µM in assay [4].

`C=C(C)[C@@H]1CC[C@]2(C(=O)n3ccnc3)CC[C@]3(C)[C@H](CC[C@@H]4[C@@]5(C)C=CC(=O)C(C)(C)[C@@H]5CC[C@]43C)[C@@H]12` [Compound 46, 28-(1H-imidazol-1-yl)-lup-1,20 (29)-dien-3,28-dione] had an IC50 in assay [3] of 3 ± 0.2 µM.

For `C=C(C)[C@@H]1CC[C@]2(CO)CC[C@]3(C)[C@H](CC[C@@H]4[C@@]5(C)CC[C@H](OC(=O)n6ccnc6)C(C)(C)[C@@H]5CC[C@]43C)[C@@H]12` [Compound 20, 28-hydroxy-lup-20(29)-en-3β-yl-1H-imidazole-1-carboxylate], the IC50 was 9.2 ± 0.7 µM in assay [1], 15 ± 1.8 µM in assay [2], 3 ± 0.2 µM in assay [3] and 16.4 ± 2.1 µM in assay [4].
